Source: PubChem BioAssay (NCI)
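Briefly, cells in 96-well plates were exposed to five compound concentrations for 48 h, and endpoints were estimated by linear interpolation. TGI: concentration producing complete growth inhibition.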

How the values were obtained:
Assay in all cases: inhibition of tumour cell growth, NCI panel, 48 h
HS 578T breast = system: HS 578T breast
BT-549 breast = system: BT-549 breast
SK-MEL-28 melanoma = system: SK-MEL-28 melanoma
U251 CNS = system: U251 CNS
SF-268 CNS = system: SF-268 CNS
SK-MEL-5 melanoma = system: SK-MEL-5 melanoma
HOP-92 NSCLC = system: HOP-92 NSCLC
SR leukemia = system: SR leukemia
UACC-62 melanoma = system: UACC-62 melanoma
OVCAR-4 ovarian = system: OVCAR-4 ovarian
SF-539 CNS = system: SF-539 CNS
NCI-H522 lung = system: NCI-H522 lung
MCF7 breast = system: MCF7 breast
NCI-H23 lung = system: NCI-H23 lung
CCRF-CEM leukemia = system: CCRF-CEM leukemia
OVCAR-3 ovarian = system: OVCAR-3 ovarian
UO-31 renal = system: UO-31 renal
HCT-116 colon = system: HCT-116 colon
UACC-257 melanoma = system: UACC-257 melanoma
RXF 393 renal = system: RXF 393 renal

| SMILES | TGI (HS 578T breast) [µM] | TGI (BT-549 breast) [µM] | TGI (SK-MEL-28 melanoma) [µM] | TGI (U251 CNS) [µM] | TGI (SF-268 CNS) [µM] | TGI (SK-MEL-5 melanoma) [µM] | TGI (HOP-92 NSCLC) [µM] | TGI (SR leukemia) [µM] | TGI (UACC-62 melanoma) [µM] | TGI (OVCAR-4 ovarian) [µM] | TGI (SF-539 CNS) [µM] | TGI (NCI-H522 lung) [µM] | TGI (MCF7 breast) [µM] | TGI (NCI-H23 lung) [µM] | TGI (CCRF-CEM leukemia) [µM] | TGI (OVCAR-3 ovarian) [µM] | TGI (UO-31 renal) [µM] | TGI (HCT-116 colon) [µM] | TGI (UACC-257 melanoma) [µM] | TGI (RXF 393 renal) [µM] |
| --- | --- | --- | --- | --- | --- | --- | --- | --- | --- | --- | --- | --- | --- | --- | --- | --- | --- | --- | --- | --- |
| Cn1c2ccc([N+](=O)[O-])cc2c(=O)n1Cc1ccccc1F | 82.8 | > 100 | > 100 | > 100 | > 100 | > 100 | 91.6 | > 100 | > 100 | > 100 | 79.6 | 71.5 | > 100 | > 100 | > 100 | > 100 | > 100 | > 100 | > 100 | > 100 |
| Cn1c(=O)c2c3ccccc3n(C)c2n(C)c1=O | > 100 | > 100 |  | > 100 | > 100 | > 100 | > 100 | > 100 | > 100 | > 100 | > 100 | > 100 | > 100 | > 100 | > 100 | > 100 | > 100 | > 100 | > 100 | > 100 |
| CN(C)CCNc1ccc([N+](=O)[O-])c2sc3ccccc3c(=O)c12 | 38.8 | 17.2 | 21.5 | > 100 | 48.8 | 20.6 | 51.2 | 22.9 | 16.8 | 9.27 | 13.7 | 5.15 | 15.2 | 29.5 | > 100 | 32.6 | 30.8 | 11.3 | 19.6 | 38.1 |
| CN1Cc2ccccc2S(=O)(=O)n2cccc2C1=O | > 100 | > 100 | > 100 | > 100 |  | > 100 | > 100 | > 100 | > 100 | > 100 | > 100 | > 100 | > 100 |  | > 100 | > 100 | > 100 | > 100 | > 100 | > 100 |
| COc1ccccc1CCN1CCN(CCCc2ccccc2)CC1 | > 100 | > 100 | > 100 | > 100 | > 100 | 45.7 | 23.2 | > 100 | > 100 | > 100 | > 100 | > 100 | > 100 |  | > 100 | > 100 | > 100 | > 100 | > 100 | > 100 |
| O=c1c2cccnc2n2n1Cc1ccccc1C2 | > 100 | > 100 | > 100 | > 100 | > 100 | > 100 | > 100 | > 100 | > 100 | > 100 | > 100 | > 100 | > 100 | > 100 | > 100 | > 100 | > 100 | > 100 | > 100 | > 100 |
| C=C1C[C@@H]2CC[C@@]34CC5O[C@H]6C(O[C@H]7CC[C@H](CC(=O)O[C@@H]8[C@@H](C)[C@@H]9O[C@@H]%10C[C@]%11(C[C@@H]%12O[C@]%13(C[C@H](C)[C@@H]%14O[C@@H]%15CC(C(O)CO)O[C@@H]%15C[C@@H]%14O%13)C[C@H](C)[C@@H]%12O%11)O[C@@H]%10C[C@@H]9O[C@H]8CC8O[C@@H](CC[C@@H]1O2)C[C@@H](C)C8(O)CO)O[C@@H]7[C@@H]6O3)[C@H]5O4 (stereo partly specified) | > 0.815 | 0.469 | > 1 | > 1 | > 1 | > 1 | > 1 | > 1 | > 1 | > 1 |  | 0.614 | > 1 | > 1 | > 1 | > 1 | > 1 | > 1 | > 1 | > 1 |
| CC(C)=C1C(=O)C[C@]2(C)C[C@H]3O[C@]3(C)CC[C@@H]3O[C@@]3(C)CC[C@@H]12 | > 50 | > 50 | > 50 | > 50 | > 50 |  | > 50 | > 50 | > 50 | > 50 | > 50 | > 50 | > 50 | > 50 | > 50 | > 50 | > 50 | > 50 | > 50 | > 50 |
| S=c1nc2sc3c(c2c(Nc2ccc(Cl)cc2)[nH]1)CCCC3 | > 100 | > 100 | > 100 | > 100 | > 100 | > 100 | > 100 | > 100 | > 100 | > 100 |  | > 100 | > 100 | > 100 | > 100 | > 100 | > 100 | > 100 | > 100 | > 100 |
| COc1cccc2c1C(=O)C1=C(C2=O)C(O)CC(C)(C)O1 (stereo unspecified) | > 100 | > 100 | > 100 | > 100 | > 100 | 28.3 | > 100 | 46.3 | 60.9 | 55.8 | > 100 | 62.8 | > 100 | 74.5 | 66.9 | 40.5 | > 100 | 63 | 50 | > 100 |
| Cc1sc(Nc2ccc(Nc3nc(-c4ccccc4)c(C)s3)cc2)nc1-c1ccccc1 | > 100 | > 100 | > 100 | 49.6 | > 100 | 66.3 | > 100 | > 100 | > 100 | > 100 | 70.6 | > 100 | 71.5 | > 100 | > 100 | > 100 | > 100 | > 100 | > 100 | 81.5 |
| O=c1ccn([C@@H]2C[C@H]2CO)c(=O)[nH]1 | > 100 | > 100 | > 100 | > 100 | > 100 | > 100 | > 100 | > 100 | > 100 | > 100 | > 100 | > 100 | > 100 | > 100 | > 100 |  | > 100 | > 100 | > 100 | > 100 |
| Nc1ccccc1-c1noc(=O)[nH]1 | > 100 | > 100 | > 100 | > 100 | > 100 | > 100 | > 100 | > 100 | > 100 | > 100 | > 100 | > 100 | > 100 | > 100 | > 100 | > 100 | > 100 | > 100 | > 100 | > 100 |
| Cc1ccc(S(=O)(=O)NC(=O)NC(CC(N)=O)C(=O)O)cc1 (stereo unspecified) | > 100 | > 100 | > 100 | > 100 | > 100 | > 100 | > 100 | > 100 | > 100 | > 100 | > 100 | > 100 | > 100 | > 100 | > 100 |  | > 100 | > 100 | > 100 | > 100 |
| CSC(=N/C=C/c1ccccc1)SC | > 100 | > 100 | > 100 | > 100 | > 100 |  | > 100 | > 100 | > 100 | > 100 | > 100 | > 100 | > 100 | > 100 | > 100 | > 100 | > 100 | > 100 | > 100 | > 100 |
| Cc1nnc2n1N=C(c1ccccc1)/C(=C/c1ccc(-c3ccc(Cl)cc3)o1)S2 | > 100 | 32.2 |  | 24.4 | 33.2 | 27.2 | 32.6 | 42.1 | 29.1 | 80 |  | 24.7 | > 100 | 36.4 | 16.4 | 23.9 | 26.5 | 25.9 | 36.2 | 26.7 |
| CC(=O)Nc1oc(C)c(C)c1S(=O)(=O)c1ccc(Cl)cc1 | 93.6 | 89.3 | > 100 | > 100 | > 100 | 76.6 | > 100 | > 100 | > 100 | > 100 | > 100 | > 100 | > 100 | > 100 | > 100 | > 100 | > 100 | > 100 | > 100 | > 100 |
| COC1(c2ccc(Cl)cc2)SC=C(C)n2c1noc2=O (stereo unspecified) | > 100 | > 100 | > 100 | > 100 | > 100 | > 100 | > 100 | > 100 | > 100 | > 100 |  | > 100 | > 100 | > 100 | > 100 | > 100 | > 100 | > 100 | > 100 | > 100 |
| O=C(OCc1ccccc1)N(CCCCN(CCCNC(=O)C(F)(F)F)C(=O)OCc1ccccc1)CCCNC(=O)C(F)(F)F | > 100 | > 100 | > 100 | > 100 | > 100 | > 100 | > 100 | > 100 | > 100 | > 100 | > 100 | > 100 | > 100 | > 100 | > 100 | > 100 | > 100 | > 100 | > 100 | > 100 |
| Nc1ncc(Br)c(NCC2(CO)CCC2)n1 | > 100 | > 100 | > 100 | > 100 | > 100 | > 100 | > 100 | > 100 | > 100 | > 100 | > 100 | > 100 | > 100 | > 100 | > 100 | > 100 | > 100 | > 100 | > 100 | > 100 |
| N=C(N)c1ccc(/C=C/c2ccc(C(=N)N)cc2)cc1 | > 100 | > 100 | > 100 | > 100 | > 100 | > 100 | > 100 | > 100 | > 100 | > 100 |  | > 100 | > 100 | > 100 | > 100 | > 100 | > 100 | > 100 | > 100 | > 100 |
| CC(=O)Oc1c(C)c2c(c3ncccc13)OC(C)C2 (stereo unspecified) | 59.4 | 35.6 | 26.8 | 28.8 | 28.8 | 27.5 | 28.2 | 22.7 | 24.6 | 29.9 | 28.7 | 15.4 | 32.5 | 32.9 | 38.5 | > 100 | 28.4 | 32.3 | 28.6 | 30.9 |
| C=Cc1nc2c(Cl)ncnc2n1Cc1ccccc1 | 50.4 | 10.9 | 11.3 | 22.6 | 22.9 | 8.69 | 4.66 | > 33.4 | 19.8 | 13.5 | 8.77 | 3.83 | 9.53 | 11.6 | > 100 | 7.95 | 6.02 | 4.72 | 8.6 | 7.84 |
